Laboratory results as given in patent publication US10981872B1, “Di(2-aryl hydrozonopropanal) arene derivatives” (King Abdulaziz University, priority 2020, dated 2021).
Read-outs that look alike come from different tables or passages of the source.

Columns and labels:
[1] = system: human colon carcinoma HCT-116 cells; assay: MTT cell viability assay, HCT-116; type: cell-based
Procedure: (§1) Human alveolar basal epithelial cell line (A-549) and human colon carcinoma (HCT-116), purchased from ATCC, USA, were used to evaluate the anticancer properties of the compounds. Cells were routinely cultured in RPMI (Roswell Park Memorial Institute Medium), except HCT-116 cells which were cultured in McCoy's medium. All media were supplemented with 10% fetal bovine serum (FBS), 2 mM L-glutamine, 100 units/ml penicillin G sodium, 100 units/ml streptomycin sulphate, and 250 ng/ml amphotericin B. Cells were maintained at sub-confluency at 37° C. in humidified air containing 5% CO2. For sub-culturing, monolayer cells were harvested after trypsin/EDTA treatment at 37° C. Cells were used when confluence had reached 75%. Tested samples were dissolved in dimethyl sulphoxide (DMSO), and then diluted in the assay to begin with the indicated concentration. All cell culture material was obtained from Cambrex BioScience (Copenhagen, Denmark). All chemicals were from Sigma/Aldrich, USA, unless otherwise indicated. All experiments were repeated three times, unless otherwise indicated.
Cytotoxicity of tested samples was measured against different cancer cells using the MTT Cell Viability Assay. The 3-[4,5-dimethylthiazole-2-yl]-2,5-diphenyltetrazolium bromide (MTT) assay is based on the ability of an active mitochondrial dehydrogenase enzyme of living cells to cleave the tetrazolium rings of the yellow MTT and form dark blue insoluble formazan crystals which are largely impermeable to cell membranes, resulting in its accumulation within healthy cells. Dissolution of the cells results in the liberation of crystals, which are then solubilized. The number of viable cells is directly proportional to the level of soluble formazan dark blue color. The extent of the reduction of MTT was quantified by measuring the absorbance at 570 nm.
MTT solution: 5 mg/ml of MTT in 0.9% NaCl.
Acidified isopropanol: 0.04 N HCl in absolute isopropanol.
Cells (0.5×10^5 cells/well), in serum-free media, were plated in a flat bottom 96-well microplate, and treated with 20 μl of different concentrations of the tested samples for 48 h at 37° C., in a humidified 5% CO2 atmosphere. After incubation, media was removed and 40 μl MTT solution/well were added and the cells were incubated for an additional 4 h. MTT crystals were solubilized by adding 180 μl of acidified isopropanol/well and plates were kept at room temperature, followed by photometric determination of the absorbance at 570 nm using a microplate ELISA reader. Triplicate repeats were performed for each concentration and the average was calculated. Data were expressed as the percentage of relative viability compared with the untreated cells compared with the vehicle control, with cytotoxicity indicated by <100% relative viability
The percentage of relative viability was calculated using the following equation: [Absorbance of treated cells/Absorbance of control cells)]×100 Then the half maximal inhibitory concentration (IC50) was calculated from the equation of the concentration vs % of viability curve. Results and Discussion

[2] = MTT cell viability assay, A-549; type: cell-based, human; conditions: compared to the tumor cell line HCT116
Procedure: as §1, with “Tested samples were dissolved in dimethyl sulphoxide (DMSO), and then diluted in the assay to begin with the indicated concentration. All cell culture material was obtained from Cambrex BioScience (Copenhagen, Denmark). All chemicals were from Sigma/Aldrich, USA, unless otherwise indicated. All experiments were repeated three times, unless otherwise indicated.” left out
(§2) Cytotoxicity of tested samples was measured against different cancer cells using the MTT Cell Viability Assay. […] The extent of the reduction of MTT was quantified by measuring the absorbance at 570 nm. […]
(§3) Cells (0.5×10^5 cells/well), in serum-free media, were plated in a flat bottom 96-well microplate, and treated with 20 μl of different concentrations of the tested samples for 48 h at 37° C., in a humidified 5% CO2 atmosphere. […] MTT crystals were solubilized by adding 180 μl of acidified isopropanol/well and plates were kept at room temperature, followed by photometric determination of the absorbance at 570 nm using a microplate ELISA reader. […]

[3] = system: normal human alveolar basal epithelial cell line (A-549); assay: MTT cell viability assay, A-549; type: cell-based; conditions: A-549 versus HCT116
Procedure: as §1, with “Tested samples were dissolved in dimethyl sulphoxide (DMSO), and then diluted in the assay to begin with the indicated concentration. All cell culture material was obtained from Cambrex BioScience (Copenhagen, Denmark). All chemicals were from Sigma/Aldrich, USA, unless otherwise indicated. All experiments were repeated three times, unless otherwise indicated.” left out
as §2, §3

[4] = Homo sapiens, HCT-116, 48 h treatment, read-out: IC50 against the colon cancer cell line HCT 116

Row | IC50 [1, 4] [nM] | SMILES | also measured
1 | – | Cc1ccc(NN=C(C=O)C(=O)c2ccc(C(=O)/C(C=O)=N/Nc3ccc(C)cc3)cc2)cc1 [Compound 9a] | IC50 ([1]; 48 h treatment, read-out: IC50 against the colon cancer cell line HCT 116): 126 nM
2 | 299 | N#Cc1ccccc1N/N=C(/C=O)C(=O)c1ccc(C(=O)/C(C=O)=N/Nc2ccccc2C#N)cc1 [Compound 9b, 2-(2-((E)-1-(4-((Z)-2-(2-(2-cyanophenyl)hydrazineylidene)-3-oxopropanoyl)phenyl)-1,3-dioxopropan-2-ylidene)hydrazineyl)benzonitrile] | –
3 | 277 | Cc1ccc(N/N=C(\C=O)C(=O)c2cccc(C(=O)/C(C=O)=N/Nc3ccc(C)cc3)n2)cc1 [Compound 11a, (2E,2′E)-3,3′-(pyridine-2,6-diyl)bis(3-oxo-2-(2-(p-tolyl)hydrazineylidene)propanal)] | –
4 | 98 | N#Cc1ccccc1N/N=C(\C=O)C(=O)c1cccc(C(=O)/C(C=O)=N/Nc2ccccc2C#N)n1 [Compound 11b, 2,2′-(((2E,2′E)-pyridine-2,6-diylbis(1,3-dioxopropan-1-yl-2-ylidene))bis(hydrazin-1-yl-2-ylidene))dibenzonitrile] | IC50 ([1]; Homo sapiens, HCT-116, 48 h treatment, read-out: IC50 for HCT116 cancer cells): 98 ± 30 nM; Cytotoxic effects on the normal, non-tumorigenic A-549 cell line [2]: only weak cytotoxic effects; Selectivity index [3]: excellent selectivity index
5 | 126 | COc1cccc2c1C(=O)c1c(O)c3c(c(O)c1C2=O)C[C@@](O)(C(=O)CO)C[C@@H]3O[C@H]1C[C@H](N)[C@H](O)[C@H](C)O1 [Doxorubicin, reference compound] | –
